Measurements taken from PubChem BioAssay (NCI).
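Briefly, cells in 96-well plates were exposed to five compound concentrations for 48 h, and endpoints were estimated by linear interpolation. Here, GI50 denotes the concentration required for 50% inhibition of growth. TGI: concentration producing complete growth inhibition.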

Legend:
Test in all cases: NCI-60 cell line screen, 48 h
HCT-15 colon = tested on: HCT-15 colon
A498 renal = tested on: A498 renal
SR leukemia = tested on: SR leukemia
UACC-257 melanoma = tested on: UACC-257 melanoma
OVCAR-8 ovarian = tested on: OVCAR-8 ovarian
UACC-62 melanoma = tested on: UACC-62 melanoma
EKVX NSCLC = tested on: EKVX NSCLC
TK-10 renal = tested on: TK-10 renal
NCI-H460 lung = tested on: NCI-H460 lung
OVCAR-3 ovarian = tested on: OVCAR-3 ovarian

Compound | GI50 (HCT-15 colon) [nM] | TGI (HCT-15 colon) [µM] | GI50 (A498 renal) [nM] | TGI (A498 renal) [µM] | GI50 (SR leukemia) [nM] | TGI (SR leukemia) [µM] | GI50 (UACC-257 melanoma) [nM] | TGI (UACC-257 melanoma) [µM] | GI50 (OVCAR-8 ovarian) [nM] | TGI (OVCAR-8 ovarian) [µM] | GI50 (UACC-62 melanoma) [nM] | TGI (UACC-62 melanoma) [µM] | GI50 (EKVX NSCLC) [µM] | TGI (EKVX NSCLC) [µM] | GI50 (TK-10 renal) [µM] | TGI (TK-10 renal) [µM] | GI50 (NCI-H460 lung) [µM] | TGI (NCI-H460 lung) [µM] | TGI (OVCAR-3 ovarian) [µM] | GI50 (OVCAR-3 ovarian) [nM]
Oc1ccc2c(=S)cc(-c3ccc(Br)cc3)oc2c1O | 853 | 12.1 | 2150 | 7.46 | 2540 | 38.1 | 2880 | 8.25 | 2280 | 8.92 | 2090 | 4.85 | 17.9 | 56.6 | 4.16 | 14.7 | 0.973 | 19 | – | –
CC1(C)C(N2CCOCC2)CS1(=O)=O (stereo not drawn) | – | > 10 | – | > 10 | – | – | – | > 10 | – | > 10 | – | > 10 | – | > 10 | – | > 10 | – | > 10 | > 10 | –
COc1ccc(Cn2cc(COc3cc(/C=C/C(=O)c4cc(OC)c(OC)c(OC)c4)ccc3OC)nn2)cc1 | 2760 | > 100 | 12800 | > 100 | 2700 | > 100 | 10300 | > 100 | 3060 | > 100 | 4190 | > 100 | – | – | 3.7 | 26.3 | 4.39 | 40.4 | 6.71 | 2620
COc1cc(C(=O)/C=C/c2cc(-c3ccc4c(c3)OCO4)n[nH]2)cc(OC)c1OC | 1950 | 6.75 | 1750 | 4.65 | 1200 | 5.63 | 2950 | 9.46 | 2350 | 6.37 | 1810 | 3.89 | – | – | 2.9 | 7.17 | 1.81 | 3.77 | 3.5 | 1710
CCN(CC)CCNC(=O)c1cccc2c1-c1ccccc1C2=O | > 100000 | > 100 | > 100000 | > 100 | – | – | > 100000 | > 100 | > 100000 | > 100 | > 100000 | > 100 | > 100 | > 100 | > 100 | > 100 | > 100 | > 100 | > 100 | > 100000
Cc1ccc(N)cc1[As]=[As]c1cc(N)ccc1C (stereo not drawn) | 750 | 2.24 | 1290 | 2.64 | 944 | > 25.1 | 1250 | 2.54 | 1570 | 2.98 | 1510 | 3 | – | – | 1.47 | 2.81 | 3.08 | 12.2 | 3.02 | 1620
O=C(NC1CC1)c1c(O)[nH]c(=S)[nH]c1=O | – | > 100 | – | > 100 | – | > 100 | – | > 100 | – | > 100 | – | > 100 | – | – | – | > 100 | – | > 100 | > 100 | –
